Measured values reported in US7786111B2, “Medicaments for the treatment of chronic obstructive pulmonary disease” (Boehringer Ingelheim Pharma GmbH & Co. KG, priority 2002, dated 2010).
Where a name gives a salt, the structure may show the parent alone.

melting point | Compound
278 to 280 °C | Cc1cc(F)ccc1CC(C)(C)NCC(O)c1cc(O)cc2c1OCC(=O)N2 (centres unmarked) (as salt: hydrochloride) [Example 11, 8-{2-[2-(4-fluoro-2-methylphenyl)-1,1-dimethylethylamino]-1-hydroxyethyl}-6-hydroxy-4H-benzo[1,4]oxazin-3-one]
235 to 238 °C | Cc1cc(C)cc(CC(C)(C)NCC(O)c2cc(O)cc3c2OCC(=O)N3)c1 (centres unmarked) (as salt: hydrochloride) [Example 15, 8-{2-[2-(3,5-dimethylphenyl)-1,1-dimethylethylamino]-1-hydroxyethyl}-6-hydroxy-4H-benzo[1,4]oxazin-3-one]

The remaining lines, values behind:

Compound | melting point
CC(C)(Cc1ccc(F)cc1F)NCC(O)c1cc(O)cc2c1OCC(=O)N2 (centres unmarked) (as salt: hydrochloride) | 279 to 280 °C
Cc1cc(CC(C)(C)NCC(O)c2cc(O)cc3c2OCC(=O)N3)ccc1F (centres unmarked) (as salt: hydrochloride) [Example 10, 8-{2-[2-(4-Fluoro-3-methylphenyl)-1,1-dimethylethylamino]-1-hydroxyethyl}-6-hydroxy-4H-benzo[1,4]oxazin-3-one] | 278 to 280 °C
CC(C)(Cc1ccc(OCCCC(=O)O)cc1)NCC(O)c1cc(O)cc2c1OCC(=O)N2 (centres unmarked) [Example 16, 4-(4-{2-[2-hydroxy-2-(6-hydroxy-3-oxo-3,4-dihydro-2H-benzo[1,4]oxazin-8-yl)ethylamino]-2-methylpropyl}phenoxy)butyric acid] | 201 to 204 °C
